The text below walks through data of article PMC6510372 (Clinical and Translational Science, 2019).

“Also recorded” adds a separate entry of the source.

Broadly, the half-life is the time needed for the level to fall by half in the phase considered. High values mean slow decline, low ones rapid decline.

The test system of data set [1] is CYP3A. The data set can be described thus: Study 006 cohort 2: effect of steady-state tezacaftor/ivacaftor on midazolam. In kind it is in vivo, human. The conditions noted are these: midazolam 2.0 mg single dose with/without TEZ 100 mg q.d./IVA 150 mg q12 h, oral, fed, healthy subjects.
Data set [2] has as its system CYP3A. To be noted: cited from earlier work.
For data set [3], the system named is CYP3A. Kind of data set: Study 006 cohort 1: effect of itraconazole. In kind it is in vivo, human. The conditions noted are these: coadministration of itraconazole vs tezacaftor/ivacaftor alone.
The subject of data set [4] is CYP3A. The data set can be described thus: Study 770-017: effect of ciprofloxacin. In kind it is in vivo, human. The conditions noted are these: ciprofloxacin 750 mg q12 h with tezacaftor 50 mg q12 h and ivacaftor 150 mg q12 h.
The test system of another data set is CFTR. The conditions noted are these: major circulating metabolites in humans; cited from earlier work.
A short description of data set [5]: Steady-state PK of tezacaftor q.d./ivacaftor twice daily in patients with CF. In kind it is in vivo. The conditions noted are these: human, plasma, oral.
For data set [6] the following is noted: cited from earlier work.
The conditions of data set [7]: cited from earlier work; for Food effect on exposure: fat‐containing food vs fasted state.
Data set [8] relates to CYP3A. The conditions noted are these: in vitro; cited from earlier work.
For data set [9], the system named is permeability glycoprotein (P‐gp) efflux transporter. To be noted: ref 3 (tezacaftor), ref 6 (ivacaftor); cited from earlier work.
The target in data set [10] is T1, P-gp (Homo sapiens, UniProt P08183). To be noted: ivacaftor alone, digoxin as model P‐gp substrate; cited from earlier work.
For data set [11], the system named is CYP3A. To be noted: cited from earlier work. The source holds these as a separate data set.
Data set [12] concerns CYP3A. The conditions noted are these: human hepatocytes and recombinant human CYP; no reference given; cited from earlier work.
In data set [13] the target is T1, P-gp. Kind of data set: Study 006 cohort 2: effect of steady-state tezacaftor/ivacaftor on digoxin. In kind it is in vivo. To be noted: for CL renal: both, human, urine and plasma, oral.
Setting [14] is: digoxin with tezacaftor 100 mg q.d./ivacaftor 150 mg q12 h vs digoxin alone.

T1 sequence (P08183 whole entry): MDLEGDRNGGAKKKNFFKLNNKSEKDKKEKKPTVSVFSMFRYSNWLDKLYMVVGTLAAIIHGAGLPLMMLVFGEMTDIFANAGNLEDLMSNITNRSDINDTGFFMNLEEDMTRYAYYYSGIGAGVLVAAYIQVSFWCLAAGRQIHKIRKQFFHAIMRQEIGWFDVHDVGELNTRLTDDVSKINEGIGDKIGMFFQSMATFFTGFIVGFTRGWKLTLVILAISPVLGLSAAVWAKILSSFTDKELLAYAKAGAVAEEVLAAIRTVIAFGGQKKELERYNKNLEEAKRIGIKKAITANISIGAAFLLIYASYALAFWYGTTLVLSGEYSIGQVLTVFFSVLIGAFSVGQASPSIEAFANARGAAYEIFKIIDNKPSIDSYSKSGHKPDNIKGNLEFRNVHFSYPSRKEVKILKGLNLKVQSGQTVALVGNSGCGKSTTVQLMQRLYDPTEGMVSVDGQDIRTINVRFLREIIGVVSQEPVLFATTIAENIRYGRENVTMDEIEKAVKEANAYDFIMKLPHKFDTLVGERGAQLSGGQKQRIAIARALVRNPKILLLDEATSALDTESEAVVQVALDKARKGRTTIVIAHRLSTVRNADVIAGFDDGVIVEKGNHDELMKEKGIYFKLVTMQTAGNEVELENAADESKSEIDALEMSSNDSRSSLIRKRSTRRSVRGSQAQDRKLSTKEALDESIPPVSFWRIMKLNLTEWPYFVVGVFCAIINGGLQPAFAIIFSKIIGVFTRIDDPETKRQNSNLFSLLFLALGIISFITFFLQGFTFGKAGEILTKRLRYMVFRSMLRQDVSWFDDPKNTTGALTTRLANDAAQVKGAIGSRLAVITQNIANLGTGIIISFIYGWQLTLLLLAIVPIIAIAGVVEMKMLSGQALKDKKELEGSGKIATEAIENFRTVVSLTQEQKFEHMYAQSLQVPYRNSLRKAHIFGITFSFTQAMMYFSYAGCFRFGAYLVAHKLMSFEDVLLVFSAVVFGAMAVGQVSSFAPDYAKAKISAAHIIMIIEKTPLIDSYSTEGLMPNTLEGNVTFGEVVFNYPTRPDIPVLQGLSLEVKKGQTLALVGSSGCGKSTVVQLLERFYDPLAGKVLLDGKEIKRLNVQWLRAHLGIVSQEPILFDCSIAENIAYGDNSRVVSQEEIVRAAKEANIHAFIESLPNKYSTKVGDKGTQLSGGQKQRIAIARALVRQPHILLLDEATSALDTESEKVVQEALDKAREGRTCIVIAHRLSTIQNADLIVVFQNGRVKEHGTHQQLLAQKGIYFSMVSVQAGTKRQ

In the case of `Cc1ncc2n1-c1ccc(Cl)cc1C(c1ccccc1F)=NC2` [Midazolam, midazolam], in the data set on CYP3A [1], the “Effect of TEZ/IVA on PK” value is “↔”; the “GLSM ratio (90% CI) with/without TEZ/IVA, AUC” value is given as 1.12 (1.01–1.25); the “GLSM ratio (90% CI) with/without TEZ/IVA, Cmax” value was 1.13 (1.01–1.25). The “Increase of exposure with ivacaftor alone” value in the data set on CYP3A [2] (midazolam coadministered with ivacaftor alone) was 50%.
On to `CC(C)(C)c1cc(C(C)(C)CO)c(O)cc1NC(=O)c1c[nH]c2ccccc2c1=O` [M1‐IVA], for which, in the data set with CYP3A [3], the “Increase of AUC with itraconazole” value is on record as 3.6 fold and the “Increase of Cmax (GLSM ratio) with itraconazole” value (“Increase of Cmax (GLSM ratio)” below) is 1.8 fold. Moreover, in the data set with CYP3A [4], the “GLSM ratio range for AUC and Cmax with/without ciprofloxacin” value is on record as 0.96−1.10. Besides, the “Pharmacological activity/potency relative to parent” value with CFTR is listed as “approximately one sixth the potency of ivacaftor”.
As to `CC(C)(C)c1cc(C(C)(C)C(=O)O)c(O)cc1NC(=O)c1c[nH]c2ccccc2c1=O` [M6‐IVA], the “Decrease of AUC with itraconazole” value in the data set with CYP3A [3] was determined as 30%. Also, in the data set with CYP3A [4], the “GLSM ratio range for AUC and Cmax with/without ciprofloxacin” value is recorded as 0.96−1.10. In the data set with CFTR, the “Pharmacological activity/potency relative to parent” value was “not considered pharmacologically active”.
Consider `CC(C)(C)c1cc(C(C)(C)C)c(NC(=O)c2c[nH]c3ccccc3c2=O)cc1O` [ivacaftor], for which, in the data set on CYP3A [3], the “Increase of AUC with itraconazole” value came out at 15.6 fold and the “Increase of Cmax (GLSM ratio)” value worked out at 8.6 fold. In data set [5], the half-life is 9.3 h. In [6] (oral ivacaftor), the “Eliminated in the feces after metabolic conversion” value is 87.8% and the “Urinary excretion as unchanged drug” value is listed as “negligible”. The “Total radioactivity recovered in the urine” value in [6] (oral ivacaftor, ivacaftor and its metabolites) is listed as 6.6%. Besides, the “Food effect on exposure” value in data set [7] is “increased threefold”. In the data set with CYP3A [8], the “Potential for causing DDIs via CYP3A inhibition or induction” value is recorded as “low potential”. The “P‐gp inhibition in vitro” value in data set [9] is reported as “P‐gp inhibitor in vitro”. In the data set with CYP3A [2] (ivacaftor alone), the “CYP3A inhibition, clinical data” value is reported as “weak inhibitor of CYP3A”. In addition, at P-gp [10], the “P‐gp inhibition, clinical study” value is on record as “weak inhibitor of P‐gp; also recorded: mild P‐gp inhibitor”. Further, the “Decrease in exposure with lumacaftor” value in the data set with CYP3A [11] (ivacaftor administered with lumacaftor) is given as ~ 80%. In addition, the “Metabolic pathway in vitro” value in the data set on CYP3A [12] was “primarily metabolized via CYP3A‐mediated oxidation”.
In the case of `CC1(C)c2cc3cc(NC(=O)C4(c5ccc6c(c5)OC(F)(F)O6)CC4)c(F)cc3n2CC(CO)OC1O` (centres unmarked) [M1‐TEZ], in the data set on CYP3A [3], the “Decrease of AUC with itraconazole” value was ~ 40% and the “Decrease of Cmax with itraconazole” value was ~ 40%. Moreover, the “GLSM ratio range for AUC and Cmax with/without ciprofloxacin” value with CYP3A [4] was 1.17–1.25.
Turning to `CC(C)(CO)c1cc2cc(NC(=O)C3(c4ccc5c(c4)OC(F)(F)O5)CC3)c(F)cc2n1C[C@@H](O)CO` [tezacaftor], in the data set on CYP3A [3], the “Increase of AUC with itraconazole” value was 4 fold and the “Increase of Cmax (GLSM ratio)” value amounted to 2.8 fold. In data set [5], this compound gave a half-life of roughly 156 h. In data set [6] (oral 14C‐tezacaftor), the “Administered dose excreted in urine as unchanged drug” value is “Less than 1%”. The “Dose recovered in urine” value in [6] (oral 14C‐tezacaftor, mostly as the M2 metabolite) was “about 14%”. Moreover, in data set [6] (oral 14C‐tezacaftor, unchanged or as the M2 metabolite), the “Dose excreted in the feces” value is reported as 72%. Also, the Mean overall recovery in [6] (oral 14C‐tezacaftor, up to 21 days after the dose) is on record as 86%. Also, the “Dose proportionality of exposure” value in [7] (doses ranging from 10−300 mg) is reported as “approximately dose‐proportional”. In addition, in data set [7], the “Food effect on exposure” value is reported as “no food effect”. The “Potential for causing DDIs via CYP3A inhibition or induction” value with CYP3A [8] is reported as “low potential”. In addition, the “P‐gp inhibition in vitro” value in data set [9] is “not an inhibitor”. Also, in the data set on CYP3A [12], the “Metabolic pathway in vitro” value is “primarily metabolized via CYP3A‐mediated oxidation; also recorded: direct glucuronidation as a minor metabolic pathway”.
Consider `Cc1ccc(NC(=O)C2(c3ccc4c(c3)OC(F)(F)O4)CC2)nc1-c1cccc(C(=O)O)c1` [lumacaftor, reference compound], for which the CYP3A induction result in the data set with CYP3A [11] is “strong inducer of CYP3A”.
Take `C[C@H]1O[C@@H](O[C@H]2[C@@H](O)C[C@H](O[C@H]3[C@@H](O)C[C@H](O[C@H]4CC[C@@]5(C)[C@H](CC[C@@H]6[C@@H]5C[C@@H](O)[C@]5(C)[C@@H](C7=CC(=O)OC7)CC[C@]65O)C4)O[C@@H]3C)O[C@@H]2C)C[C@H](O)[C@@H]1O` [Digoxin, digoxin]: the CL renal was 121 mL/min on P-gp [13] and 128 mL/min on P-gp [13] (0.5 mg). Further, at P-gp [13] (setting [14]), the “Increase of AUC with tezacaftor/ivacaftor” value came to 30%. Further, the “Increase of Cmax with tezacaftor/ivacaftor” value on P-gp [13] (setting [14]) amounted to 32%.
